Source: patent US9782399B2, “Pharmaceutical compositions which inhibit FKBP52-mediated regulation of androgen receptor function and methods of using same” (The United States of America, as represented by the …, priority 2009, dated 2017)

What was measured:
Type in all cases: cell-based
AR = biological target: T1, AR (Homo sapiens, UniProt P10275, T878A); assay: AR nuclear translocation in LNCaP cells; settings: about 30 μM pre-treatment 24 hours, R1881 0.1 nM 2 hours
T1 construct: endogenous in cells; host or cells: LNCaP
T1 sequence (P10275 1-920 T878A): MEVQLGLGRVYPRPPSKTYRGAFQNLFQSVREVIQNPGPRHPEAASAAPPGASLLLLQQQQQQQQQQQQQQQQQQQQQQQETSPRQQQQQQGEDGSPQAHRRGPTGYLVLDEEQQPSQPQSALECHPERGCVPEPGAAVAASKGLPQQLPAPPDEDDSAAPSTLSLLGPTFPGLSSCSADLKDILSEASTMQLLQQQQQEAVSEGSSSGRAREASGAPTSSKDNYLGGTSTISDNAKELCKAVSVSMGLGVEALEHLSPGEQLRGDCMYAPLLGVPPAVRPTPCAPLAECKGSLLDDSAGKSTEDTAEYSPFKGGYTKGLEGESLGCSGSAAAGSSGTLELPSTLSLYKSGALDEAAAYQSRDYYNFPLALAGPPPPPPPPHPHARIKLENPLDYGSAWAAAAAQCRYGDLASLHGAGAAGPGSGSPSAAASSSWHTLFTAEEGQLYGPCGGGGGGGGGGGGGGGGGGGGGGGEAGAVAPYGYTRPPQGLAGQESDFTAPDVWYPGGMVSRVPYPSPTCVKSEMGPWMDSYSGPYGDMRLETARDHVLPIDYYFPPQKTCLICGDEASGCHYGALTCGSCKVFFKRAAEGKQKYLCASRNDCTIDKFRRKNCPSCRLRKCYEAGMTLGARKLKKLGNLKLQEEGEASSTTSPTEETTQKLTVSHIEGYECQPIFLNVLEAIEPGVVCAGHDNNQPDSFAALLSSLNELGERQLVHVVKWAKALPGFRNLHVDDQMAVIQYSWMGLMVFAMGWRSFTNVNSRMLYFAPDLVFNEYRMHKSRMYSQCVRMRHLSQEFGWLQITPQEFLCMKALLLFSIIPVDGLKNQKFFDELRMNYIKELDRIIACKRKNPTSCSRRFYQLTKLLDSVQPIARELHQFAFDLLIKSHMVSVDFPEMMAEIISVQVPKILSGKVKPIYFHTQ
Method: LNCaP cells were maintained as above. At 50% confluence, cells were washed several times in serum-free RPMI-1640 medium, and re-cultured for 48 hours in RPMI-1640 medium containing 10% charcoal-stripped fetal bovine serum. At that time, compound 2 (termed 21D1C in FIG. 7) was added to a final concentration of about 30 μM. After an additional 24 hours, R1881 was added (0.1 nM) and cells were cultured for an additional 2 hours. At that time, cells were lysed and separated into nuclear and cytosolic fractions following published methods (Schreiber, et al., Nucleic Acids Res., 17:6419 (1989)). Quantification of AR in nucleus and cytosol was performed by Western blotting with an AR-specific antibody following polyacrylamide gel electrophoresis.

PSA protein = PSA protein expression in LNCaP cells (Western blotting); settings: 100 μM, about 48 hours, R1881 0.5 nM
Method: The amount of PSA protein expression levels was measured in cells from the prostate cancer cell line LNCaP, after treatment with either control, or about 1 to 100 μM of each of the four FTA compounds identified in the screen (Compounds 1-4). The protein was quantified by an immunohistochemical method using photodetection.
LNCaP cells were maintained in RPMI-1640 medium containing 10% fetal bovine serum. Forty eight hours prior to the experiment, cells were washed several times in serum-free medium and then cultured in RPMI-1640 medium containing 10% charcoal-stripped fetal bovine serum (to remove endogenous androgens). After 48 hours in this medium, Compound 2 was added in a range of concentrations (0, 3, 10, 30, and 100 μM) for 24 hours, at which time the synthetic androgen, methyltrienolone (R1881), (Sigma, St. Louis, Mo.) was added (0.5 nM). After an additional 48 hours, cells were lysed as described in Yano A., et al., Proc. Natl. Acad. Sci. USA, 105:15541-46 (2008), and PSA protein was monitored by polyacrylamide gel electrophoresis and Western blotting with an anti-PSA antibody (sc-80304, Santa Cruz Biotechnology).

PSA mRNA = PSA mRNA quantitation in LNCaP cells (RT-PCR); settings: 100 μM, 24 hours, R1881
Method: For PSA mRNA determination, cells were cultured and treated identically, except that lysis for mRNA extraction was performed 24 hours after addition of R1881. Total RNA was isolated using protocols and reagents contained in the Qiagen RNeasy Kit (Valencia, Calif.). TaqMan real-time quantitative RT-PCR analysis of PSA was performed using previously described techniques Hong J A, et al., Cancer Res., 65:7763-74 (2005); Guo F, et al., Cancer Res., 65:10536-44 (2005). The amount of PSA mRNA level and total protein in cells from the prostate cancer cell line LNCaP was measured after treatment with either control, or about 1 to 100 μM of each of the four compounds identified in the screen (Compounds 1-4). It was known that the expression of PSA mRNA in LNCaP cells is driven by an androgen receptor mediated pathway. The mRNA is quantified by a photodetection method over time. […] At 100 μM, mRNA expression was decreased to 40% of control levels.

ligand-dependent nuclear translocation of AR (AR): significantly prevented
Structure (SMILES): O=C(Nc1cccc(Cl)c1Cl)C1CCCCC1 [Compound 2]
PSA protein expression (printed as mRNA expression) (PSA protein): 20 % of control levels
PSA mRNA expression (PSA mRNA): 40 % of control levels
